US10246429B2, “Vinyl fluoride cyclopropyl fused thiazin-2-amine compounds as beta-secretase inhibitors and methods of use” (AMGEN INC., priority 2015, dated 2019)

How the values were obtained:
Cathepsin D (CatD) = Cathepsin D (CatD) (Homo sapiens (Human), UniProt P07339); experiment: CatD assay; assay type: biochemical; conditions: read-out: IC50 IP (μM) CatD
BACE2 = BACE2 (Homo sapiens (Human), UniProt Q9Y5Z0); experiment: In vitro enzymatic BACE2 FRET assay; assay type: biochemical; conditions: read-out: IC50 IP (μM) BACE2 Enzyme
From the text: (§1) In Vitro Enzymatic BACE1 and BACE2 FRET (Fluorescence Resonance Energy Transfer) Assays (Enzyme Assay Data in Table 1)

BACE1 [1] = biological target: T1, BACE1 (Homo sapiens (Human), UniProt P56817); experiment: In vitro enzymatic BACE1 FRET assay; assay type: biochemical; conditions: read-out: IC50 IP (μM) BACE1 Enzyme
Target sequence in this assay (P56817 46-501): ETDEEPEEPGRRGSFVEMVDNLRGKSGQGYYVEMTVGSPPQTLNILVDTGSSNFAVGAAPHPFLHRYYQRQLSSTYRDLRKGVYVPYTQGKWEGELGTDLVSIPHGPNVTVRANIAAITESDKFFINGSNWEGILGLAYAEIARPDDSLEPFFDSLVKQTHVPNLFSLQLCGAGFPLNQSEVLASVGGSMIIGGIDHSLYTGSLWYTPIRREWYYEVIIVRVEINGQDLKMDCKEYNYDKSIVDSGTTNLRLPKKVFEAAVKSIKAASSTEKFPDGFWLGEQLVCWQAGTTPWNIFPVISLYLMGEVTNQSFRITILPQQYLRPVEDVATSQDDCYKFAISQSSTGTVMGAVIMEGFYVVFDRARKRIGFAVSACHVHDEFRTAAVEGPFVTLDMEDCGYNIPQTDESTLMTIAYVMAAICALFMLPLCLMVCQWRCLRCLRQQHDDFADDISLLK
From the text: as §1

BACE1 [2] = biological target: T1, BACE1; experiment: BACE1 cell assay; assay type: cell-based
Target sequence in this assay (P56817 46-501, species assumed): as the sequence (P56817 46-501) above

[3] = read-out: IC50 IP (μM) BACE1 Cell

BACE2, sequence (Q9Y5Z0 63-518): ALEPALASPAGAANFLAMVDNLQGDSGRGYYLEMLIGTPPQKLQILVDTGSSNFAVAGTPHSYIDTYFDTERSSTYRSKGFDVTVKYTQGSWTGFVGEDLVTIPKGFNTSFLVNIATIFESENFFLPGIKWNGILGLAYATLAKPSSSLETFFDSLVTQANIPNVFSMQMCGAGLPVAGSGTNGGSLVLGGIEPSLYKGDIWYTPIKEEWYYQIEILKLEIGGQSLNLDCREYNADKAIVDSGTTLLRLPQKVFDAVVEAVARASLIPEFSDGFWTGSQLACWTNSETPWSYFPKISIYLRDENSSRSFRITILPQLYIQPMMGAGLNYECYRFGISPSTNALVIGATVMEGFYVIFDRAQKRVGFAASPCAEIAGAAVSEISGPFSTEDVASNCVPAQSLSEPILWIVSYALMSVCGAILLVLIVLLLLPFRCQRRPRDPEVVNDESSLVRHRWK
Cathepsin D (CatD), sequence (P07339 65-412, species assumed): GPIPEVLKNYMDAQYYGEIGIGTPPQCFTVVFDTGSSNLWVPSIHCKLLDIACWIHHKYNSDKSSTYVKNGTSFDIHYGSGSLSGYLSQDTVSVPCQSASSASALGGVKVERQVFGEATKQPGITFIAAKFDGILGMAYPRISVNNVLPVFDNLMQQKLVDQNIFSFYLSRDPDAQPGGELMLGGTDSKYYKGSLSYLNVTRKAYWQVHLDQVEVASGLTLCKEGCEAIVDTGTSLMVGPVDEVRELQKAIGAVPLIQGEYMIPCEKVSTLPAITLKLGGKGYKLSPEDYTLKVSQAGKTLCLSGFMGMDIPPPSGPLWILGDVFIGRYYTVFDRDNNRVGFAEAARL

CNC(=O)[C@]12C[C@H]1[C@@](C)(c1cc(/C=C(\F)c3ncc(C#N)cc3C)ccc1F)N=C(N)S2 [Example 225, (1S,5S,6S)-3-amino-5-(5-((Z)-2-(5-cyano-3-methylpyridin-2-yl)-2-fluorovinyl)-2-fluorophenyl)-N,5-dimethyl-2-thia-4-azabicyclo[4.1.0]hept-3-ene-1-carboxamide]
IC50 (Cathepsin D (CatD)): 198 µM | IC50 (BACE2): 0.621 µM | IC50 (BACE1 [1]): 0.027 µM | IC50 (BACE1 [2]): 0.033 µM

CNC(=O)[C@]12C[C@H]1[C@@](C)(c1cc(/C=C(\F)c3cnc(OCc4cnco4)cn3)ccc1F)N=C(N)S2 [Example 226, (1S,5S,6S)-3-amino-5-(2-fluoro-5-((Z)-2-fluoro-2-(5-(oxazol-5-ylmethoxy)pyrazin-2-yl)vinyl)phenyl)-N,5-dimethyl-2-thia-4-azabicyclo[4.1.0]hept-3-ene-1-carboxamide]
IC50 (Cathepsin D (CatD)): 18.5 µM | IC50 (BACE2): 0.285 µM | IC50 (BACE1 [1]): 0.126 µM | IC50 (BACE1 [2]): 0.608 µM

C#CCOc1cnc(/C(F)=C/c2ccc(F)c([C@@]3(C)N=C(N)S[C@@]4(S(C)(=O)=O)C[C@H]43)c2)cn1 [Example 227, (1R,5S,6S)-5-(2-fluoro-5-((Z)-2-fluoro-2-(5-(prop-2-yn-1-yloxy)pyrazin-2-yl)vinyl)phenyl)-5-methyl-1-(methylsulfonyl)-2-thia-4-azabicyclo[4.1.0]hept-3-en-3-amine]
IC50 (Cathepsin D (CatD)): 55.1 µM | IC50 (BACE2): 0.058 µM | IC50 (BACE1 [1]): 0.0006 µM | IC50 (BACE1 [2]): 0.0105 µM

C[C@]1(c2cc(/C=C(\F)c3cnc(Cl)cn3)ccc2F)N=C(N)S[C@@]2(S(C)(=O)=O)C[C@H]21 [Example 230, (1R,5S,6S)-5-(5-((Z)-2-(5-chloropyrazin-2-yl)-2-fluorovinyl)-2-fluorophenyl)-5-methyl-1-(methylsulfonyl)-2-thia-4-azabicyclo[4.1.0]hept-3-en-3-amine]
IC50 (Cathepsin D (CatD)): 121 µM | IC50 (BACE2): 0.011 µM | IC50 (BACE1 [1]): 0.0057 µM | IC50 (BACE1 [2]; [3]): 0.231 µM

C#C[C@H](C)Oc1cnc(/C(F)=C/c2ccc(F)c([C@@]3(C)N=C(N)S[C@@]4(S(C)(=O)=O)C[C@H]43)c2)cn1 [Example 232, (1R,5S,6S)-5-(5-((Z)-2-(5-((S)-but-3-yn-2-yloxy)pyrazin-2-yl)-2-fluorovinyl)-2-fluorophenyl)-5-methyl-1-(methylsulfonyl)-2-thia-4-azabicyclo[4.1.0]hept-3-en-3-amine]
IC50 (Cathepsin D (CatD)): 88.5 µM | IC50 (BACE2): 0.108 µM | IC50 (BACE1 [1]): 0.001 µM | IC50 (BACE1 [2]; [3]): 0.0395 µM

C[C@]1(c2cc(/C=C(\F)c3ccc(C#N)cn3)ccc2F)N=C(N)S[C@@]2(S(C)(=O)=O)C[C@H]21 [Example 233, 6-((Z)-2-(3-((1R,5S,6S)-3-amino-5-methyl-1-(methylsulfonyl)-2-thia-4-azabicyclo[4.1.0]hept-3-en-5-yl)-4-fluorophenyl)-1-fluorovinyl)nicotinonitrile]
IC50 (Cathepsin D (CatD)): 204 µM | IC50 (BACE2): 0.014 µM | IC50 (BACE1 [1]): 0.0016 µM | IC50 (BACE1 [2]; [3]): 0.0087 µM

C#CCOc1cnc(/C(F)=C/c2ccc(F)c([C@@]3(C)N=C(N)S[C@@]4(C(C)=O)C[C@H]43)c2)cn1 [Example 234, 1-((1S,5S,6S)-3-amino-5-(2-fluoro-5-((Z)-2-fluoro-2-(5-(prop-2-yn-1-yloxy)pyrazin-2-yl)vinyl)phenyl)-5-methyl-2-thia-4-azabicyclo[4.1.0]hept-3-en-1-yl)ethanone]
IC50 (Cathepsin D (CatD)): 125 µM | IC50 (BACE2): 0.581 µM | IC50 (BACE1 [1]): 0.0059 µM | IC50 (BACE1 [2]): 0.0111 µM

CC#CCOc1cnc(/C(F)=C/c2ccc(F)c([C@@]3(C)N=C(N)S[C@@]4(C(C)=O)C[C@H]43)c2)cn1 [Example 235, 1-((1S,5S,6S)-3-amino-5-(5-((Z)-2-(5-(but-2-yn-1-yloxy)pyrazin-2-yl)-2-fluorovinyl)-2-fluorophenyl)-5-methyl-2-thia-4-azabicyclo[4.1.0]hept-3-en-1-yl)ethanone]
IC50 (Cathepsin D (CatD)): 587 µM | IC50 (BACE2): 0.247 µM | IC50 (BACE1 [1]): 0.0022 µM | IC50 (BACE1 [2]; [3]): 0.0058 µM

CC(=O)[C@]12C[C@H]1[C@@](C)(c1cc(/C=C(\F)c3cnc(OCC(F)(F)F)cn3)ccc1F)N=C(N)S2 [Example 236, 1-((1S,5S,6S)-3-amino-5-(2-fluoro-5-((Z)-2-fluoro-2-(5-(2,2,2-trifluoroethoxy)pyrazin-2-yl)vinyl)phenyl)-5-methyl-2-thia-4-azabicyclo[4.1.0]hept-3-en-1-yl)ethanone]
IC50 (Cathepsin D (CatD)): 400 µM | IC50 (BACE2): 1.28 µM | IC50 (BACE1 [1]): 0.118 µM | IC50 (BACE1 [2]; [3]): 0.284 µM

CC(=O)[C@]12C[C@H]1[C@@](C)(c1cc(/C=C(\F)c3ccc(C#N)cn3)ccc1F)N=C(N)S2 [Example 238, 6-((Z)-2-(3-((1S,5S,6S)-1-acetyl-3-amino-5-methyl-2-thia-4-azabicyclo[4.1.0]hept-3-en-5-yl)-4-fluorophenyl)-1-fluorovinyl)nicotinonitrile]
IC50 (Cathepsin D (CatD)): 892 µM | IC50 (BACE2): 0.245 µM | IC50 (BACE1 [1]): 0.0121 µM | IC50 (BACE1 [2]): 0.0066 µM

C#CCOc1cnc(/C(F)=C/c2ccc(F)c([C@@]3(C)N=C(N)S[C@@]4(C#N)C[C@H]43)c2)cn1 [Example 240, (1S,5S,6S)-3-amino-5-(2-fluoro-5-((Z)-2-fluoro-2-(5-(prop-2-yn-1-yloxy)pyrazin-2-yl)vinyl)phenyl)-5-methyl-2-thia-4-azabicyclo[4.1.0]hept-3-ene-1-carbonitrile]
IC50 (Cathepsin D (CatD)): 124 µM | IC50 (BACE2): 0.081 µM | IC50 (BACE1 [1]): 0.0012 µM | IC50 (BACE1 [2]; [3]): 0.0175 µM

C[C@]1(c2cc(/C=C(\F)c3ccc(Cl)cn3)ccc2F)N=C(N)S[C@@]2(C(N)=O)C[C@H]21 [Example 242, (1S,5S,6S)-3-amino-5-(5-((Z)-2-(5-chloropyridin-2-yl)-2-fluorovinyl)-2-fluorophenyl)-5-methyl-2-thia-4-azabicyclo[4.1.0]hept-3-ene-1-carboxamide]
IC50 (Cathepsin D (CatD)): 205 µM | IC50 (BACE2): 0.034 µM | IC50 (BACE1 [1]): 0.0164 µM | IC50 (BACE1 [2]): 0.0181 µM

C[C@]1(c2cc(/C=C(\F)c3ccc(C#N)cn3)ccc2F)N=C(N)S[C@@]2(C(N)=O)C[C@H]21 [Example 243, (1S,5S,6S)-3-amino-5-(5-((Z)-2-(5-cyanopyridin-2-yl)-2-fluorovinyl)-2-fluorophenyl)-5-methyl-2-thia-4-azabicyclo[4.1.0]hept-3-ene-1-carboxamide]
IC50 (Cathepsin D (CatD)): 412 µM | IC50 (BACE2): 0.043 µM | IC50 (BACE1 [1]): 0.003 µM | IC50 (BACE1 [2]): 0.0022 µM

CC#CCOc1cnc(/C(F)=C/c2ccc(F)c([C@@]3(C)N=C(N)S[C@@]4(C#N)C[C@H]43)c2)cn1 [Example 244, (1S,5S,6S)-3-amino-5-(5-((Z)-2-(5-(but-2-yn-1-yloxy)pyrazin-2-yl)-2-fluorovinyl)-2-fluorophenyl)-5-methyl-2-thia-4-azabicyclo[4.1.0]hept-3-ene-1-carbonitrile]
IC50 (Cathepsin D (CatD)): 150 µM | IC50 (BACE2): 0.055 µM | IC50 (BACE1 [1]): 0.0004 µM | IC50 (BACE1 [2]; [3]): 0.0147 µM

C[C@]1(c2cc(/C=C(\F)c3ccc(C#N)cn3)ccc2F)N=C(N)S[C@@]2(C#N)C[C@H]21 [Example 245, (1S,5S,6S)-3-amino-5-(5-((Z)-2-(5-cyanopyridin-2-yl)-2-fluorovinyl)-2-fluorophenyl)-5-methyl-2-thia-4-azabicyclo[4.1.0]hept-3-ene-1-carbonitrile]
IC50 (Cathepsin D (CatD)): 400 µM | IC50 (BACE2): 0.057 µM | IC50 (BACE1 [1]): 0.005 µM | IC50 (BACE1 [2]; [3]): 0.0341 µM

CN(C)C(=O)[C@]12C[C@H]1[C@@](C)(c1cc(/C=C(\F)c3cn4cc(C#N)ccc4n3)ccc1F)N=C(N)S2 [Example 246, (1S,5S,6S)-3-amino-5-(5-((Z)-2-(6-cyanoimidazo[1,2-a]pyridin-2-yl)-2-fluorovinyl)-2-fluorophenyl)-N,N,5-trimethyl-2-thia-4-azabicyclo[4.1.0]hept-3-ene-1-carboxamide]
IC50 (Cathepsin D (CatD)): 53.1 µM | IC50 (BACE2): 0.39 µM | IC50 (BACE1 [1]): 0.171 µM | IC50 (BACE1 [2]; [3]): 0.05 µM

COC(=O)[C@]12C[C@H]1[C@@](C)(c1cc(/C=C(\F)c3ccc(Cl)cn3)cc(F)c1F)N=C(N)S2 [Example 248, (1S,5S,6S)-methyl 3-amino-5-(5-((Z)-2-(5-chloropyridin-2-yl)-2-fluorovinyl)-2,3-difluorophenyl)-5-methyl-2-thia-4-azabicyclo[4.1.0]hept-3-ene-1-carboxylate]
IC50 (Cathepsin D (CatD)): 200 µM | IC50 (BACE2): 0.083 µM | IC50 (BACE1 [1]): 0.0625 µM | IC50 (BACE1 [2]): 1.59 µM

CN(C)C(=O)[C@]12C[C@H]1[C@@](C)(c1cc(/C=C(\F)c3ncc4c(n3)OCCO4)ccc1F)N=C(N)S2 [Example 250, (1S,5S,6S)-3-amino-5-(5-((Z)-2-(6,7-dihydro-[1,4]dioxino[2,3-d]pyrimidin-2-yl)-2-fluorovinyl)-2-fluorophenyl)-N,N,5-trimethyl-2-thia-4-azabicyclo[4.1.0]hept-3-ene-1-carboxamide]
IC50 (Cathepsin D (CatD)): 368 µM | IC50 (BACE2): 0.076 µM | IC50 (BACE1 [1]): 0.029 µM | IC50 (BACE1 [2]; [3]): 0.017 µM

C[C@]1(c2cc(/C=C(\F)c3ccc(C#N)cn3)ccc2F)N=C(N)S[C@]2(CO)[C@H]1C2(F)F [Example 251, 6-((Z)-2-(3-((1S,5S,6R)-3-amino-7,7-difluoro-1-(hydroxymethyl)-5-methyl-2-thia-4-azabicyclo[4.1.0]hept-3-en-5-yl)-4-fluorophenyl)-1-fluorovinyl)nicotinonitrile]
IC50 (Cathepsin D (CatD)): 360 µM | IC50 (BACE2): 0.159 µM | IC50 (BACE1 [1]): 0.012 µM | IC50 (BACE1 [2]; [3]): 0.062 µM

C#CCOc1cnc(/C(F)=C/c2ccc(F)c([C@@]3(C)N=C(N)S[C@]4(CO)[C@H]3C4(F)F)c2)cn1 [Example 253, ((1S,5S,6R)-3-amino-7,7-difluoro-5-(2-fluoro-5-((Z)-2-fluoro-2-(5-(prop-2-yn-1-yloxy)pyrazin-2-yl)vinyl)phenyl)-5-methyl-2-thia-4-azabicyclo[4.1.0]hept-3-en-1-yl)methanol]
IC50 (Cathepsin D (CatD)): 147 µM | IC50 (BACE2): 0.385 µM | IC50 (BACE1 [1]): 0.0054 µM | IC50 (BACE1 [2]; [3]): 0.0636 µM

C[C@]1(c2cc(/C=C(\F)c3ccc(Cl)cn3)ccc2F)N=C(N)S[C@]2(CO)[C@H]1C2(F)F [Example 255, ((1S,5S,6R)-3-amino-5-(5-((Z)-2-(5-chloropyridin-2-yl)-2-fluorovinyl)-2-fluorophenyl)-7,7-difluoro-5-methyl-2-thia-4-azabicyclo[4.1.0]hept-3-en-1-yl)methanol]
IC50 (Cathepsin D (CatD)): 235 µM | IC50 (BACE2): 0.056 µM | IC50 (BACE1 [1]): 0.0477 µM | IC50 (BACE1 [2]): 0.505 µM
